Reference: US5401733A, “Stable and active metabolites of 1,25-dihydroxy-16-ene-cholecalciferol” (Hoffmann-La Roche Inc., priority 1993, dated 1995)
Entries after “also recorded” stand apart in the source; their conditions may differ. Like-named read-outs stand apart in the source and are kept apart here.

Key:
[1] = tested on: HL-60 cells; assay: Differentiation of HL-60 cells (NBT reduction), 4 days; assay type: cell-based, human; conditions: for Percentage of NBT positive cells, Exp. 1 / Percentage of NBT positive cells, Exp. 2 / Percentage of NBT positive cells, Average / EC50: 4 days; for Percentage of NBT positive cells, Average: average of Exp. 1 and 2; for EC50: Homo sapiens, HL-60, 96 h, NBT reduction, read-out: ED50 (concentration of compound which induced differentiation of 50% of the cells)
Protocol: Effect of 1,25(OH)2 -16-ene-24-oxo-D3 on the Morphological Differentiation of HL-60 Cells
Tissue culture medium used was RPMI-1640 (Gibco) supplemented with glutamine, antibiotics and 20% fetal bovine serum.
1,25(OH)2 -16-ene-D3 and 1,25(OH)2 -16-ene-24-oxo-D3 were dissolved in sufficient ethanol to yield stock solutions of 1 mM. Reduced lighting was used when working with the compounds and the stock solutions were stored in the dark at -20 C. in an argon atmosphere. The stock solutions were added to flasks, which were supplemented with sufficient ethanol to achieve the final concentration of 0.1%.
A HL-60 tumor cell line was originally derived from a patient with promyelocytic leukemia and was obtained from the American Type Culture Collection (ATCC #CCL240). The cells were maintained in liquid cultures by serial passage twice weekly in the tissue culture medium. For each experimental point, cells were grown in replicate flasks. The cells were seeded at a rate of 10^6 cells per 25 cm^2 flask and grown in the presence of the compounds for a total of 4 days. Ethanol, used as the vehicle, was kept constant in all dilutions in each experiment and had no effect on the cell differentiation at the concentrations used […]. After 4 days of incubation at 37° C., cultures were evaluated for cell differentiation.
Quantitation of differentiated cells was done by the biochemical method of nitroblue tetrazolium reduction (NBT) reduction. A 1 ml aliquot of cell suspension was removed from each flask and centrifuged for 10 minutes, and resuspended in about 200 μl of a work solution. The work solution contained 100 ng of tetradecanoyl phorbol acetate per ml of NBT and was kept in a covered vial on ice. The NBT was prepared fresh on the day of enumeration to 1 mg/ml in growth medium. The cells were incubated in a 37° C. water bath for 30 minutes. An aliquot was placed into a hemocytometer and the total number of blue-black cells per approximately 200 cells was determined. The percentage of differentiated cells was then calculated.
The results are also shown as the concentration of compound which induced differentiation of 50% of the cells (ED50).

[2] = tested on: human keratinocytes; assay: Keratinocyte proliferation, assay 2 (KGM without calcium supplementation, 7 days); assay type: cell-based; conditions: for proliferation of human keratinocytes / skin cells (in words): assays 1 and 2 not distinguished; for inhibition at 0.03 µM / inhibition at 0.1 µM / inhibition at 0.3 µM / inhibition at 1 µM: Homo sapiens, Keratinocyte, Exp. 1, read-out: Percentage Inhibition of Controls, Exp. 1; for inhibition at 0.03 µM: assay 2, 0.03 μM; for inhibition at 0.1 µM: assay 2, 0.1 μM; for inhibition at 0.3 µM: assay 2, 0.3 μM; for inhibition at 1 µM: assay 2, 1.0 μM; for antiproliferative activity, assay 2 (in words): assay 2, lower doses; for dose response (in words): low calcium and more rapidly dividing cells
Protocol: (§1) Quantitation of Morphological Changes During Keratinocyte Proliferation Materials and Methods
(§2) Human neonatal foreskins were collected by circumcision and placed into tubes containing Dulbecco's Modified Eagle's Medium (DMEM) with 10% serum. On arrival at the laboratory, they were mechanically trimmed of excess dermis, and treated with a solution of trypsin/EDTA (0.05%/0.02%) at 4° C. overnight. The epidermis was stripped from the dermis, agitated in buffered saline containing soybean trypsin inhibitor to remove basal keratinocytes and the stratum cornea layer was removed. The separated cells were centrifuged, resuspended in the above media, counted, and the cells plated onto plastic culture dishes or plates at a density of 25,000 cells/cm^2 in keratinocyte growth media (KGM®-modified MCDB 153, Clonetics, Inc., Catalog #CC3001) according to protocols developed by Boyce and Ham (In Vitro Models for Cancer Research III, 246-274, 1986) for MCDB 153 media. The cultures were incubated in humidified chambers with 5% CO2 at 37° C. The cultures were refed with fresh media two to three times per week. Prior to reaching confluency the cells were replated (passage one) at 25,000 cells/well on 6-well cluster plates (Costar catalog #3506) in KGM.
(§3) 1 milligram quantities were received in amber glass vials, and stored at -20° C. Sufficient 100% ethanol was added directly to the vials to obtain a millimolar solution that was subsequently aliquoted into small amber vials, overlayed with argon gas and stored at […] Each stock solution was thawed once, used and discarded. Aliquots from the stock solutions were diluted directly into medium and then serially diluted from micromolar to 10^-12 M concentrations. Dilutions from 10^-8 M to 10^-12 M had ethanol added for a final concentration of 0.1%. Stock solutions were used within one month. Control cultures were treated with 0.1% ethanol.
(§4) Approximately 24 hours after passage one, the cells were refed with fresh KGM supplemented to 1.5 mM CaCl2 (assay 1) containing the test compound. In a second assay (assay 2), the cells were grown in KGM without calcium supplementation to stimulate more proliferation and grown for 7 days instead of 5 days. Compounds were typically tested at 4 concentrations in triplicate wells. At the termination of the experiment, prior to the cultures reaching confluency, the cells were enumerated as follows. Dishes were rinsed with phosphate buffered saline, and then incubated with trysin/EDTA solution for 15 minutes. Cells were suspended, an aliquot placed into isotonic buffered saline and counted on an electronic particle counter (Coulter Counter). The counter was periodically calibrated for the correct size of keratinocytes. Each well was counted in triplicate. The number of cells per dish were calculated according to dilution factors used and results shown below in Table 3 are presented as percent inhibition obtained in control cultures.

[3] = tested on: hydroxylase enzymes; assay: Metabolism in perfused rat kidneys; assay type: in vitro ADME; conditions: for resistance to further hydroxylation (in words): rat kidney perfusion
Protocol: The compounds of formulas I and II were prepared by perfusing 1,25(OH)2 -16-ene-D3 in rat kidneys, extracting the perfusate and isolating the compounds of formulas I and II.
Crystalline 1,25(OH)2 -16-ene-D3 was synthesized as described in U.S. Pat. No. 5,087,619, which is herein incorporated by reference to the extent necessary to enable one of skill in the art to make this invention. Rat kidneys were perfused with the 1,25(OH)2 -16-ene-D3 as described in Am. J. Physiol. 1982, 243 E265-271 and in Biochemistry 1987, 26, 324-331. Cold 1,25(OH)2 -16-ene-D3 (400 nmoles) was introduced into 100 mL of perfusate and the kidney perfusion was continued for 8 hours. Lipid extraction of the final kidney perfusate was performed according to the procedure described in Can. J. Biochem. Physiol. 1959, 37, 911-917. Half of the bulk lipid extract from the final perfusate of about 100 mL was then subjected directly to high pressure liquid chromatography (HPLC) performed with a Waters Model 600 equipped with a Model 990 photo diode array detector (Waters Associates, Milford, MA). HPLC analysis was performed on the lipid extract obtained from 50 mL of perfusate under the following conditions: Zorbax-SIL column (25 cm×4.6 mm); Hexane: 2-propanol (90:10), Flow rate: 2 mL/minutes. A known amount of 25(S),26(OH)2 -D3 was added to the perfusate at the time of lipid extraction to assess extraction of vitamin D metabolites in general. Fractions of each individual metabolite from the first HPLC run was pooled and subjected to a second HPLC run using the same Zorbax-SIL column eluted with methylene chloride:2-propanol […]. Each metablite obtained from the second HPLC run was chromatographed twice using the first HPLC system. At this time, the purity of each metabolite was adequate for its structure identification process. A control perfusion was performed with cold 1,25(OH)2 -D3 in a similar fashion and the lipid extract of the final perfusate was analyzed using the same HPLC systems as above.

[4] = tested on: human keratinocytes; assay: Keratinocyte proliferation, assay 1 (KGM supplemented to 1.5 mM CaCl2, 5 days); assay type: cell-based; conditions: for inhibition at 0.03 µM / inhibition at 0.1 µM / inhibition at 0.3 µM / inhibition at 1 µM: Homo sapiens, Keratinocyte; for inhibition at 0.03 µM: assay 1, 0.03 μM; for inhibition at 0.1 µM: assay 1, 0.1 μM; for inhibition at 0.3 µM: assay 1, 0.3 μM; for inhibition at 1 µM: assay 1, 1.0 μM; for antiproliferative activity, assay 1 (in words): assay 1, lower doses
Protocol: as §1, §2, §3, §4

[5] = Exp. 2, read-out: Percentage Inhibition of Controls, Exp. 2
[6] = average of Exp. 1 and 2, read-out: Percentage Inhibition of Controls, Average

Row | EC50 [1] [µM] | SMILES | differentiation of HL-60 / human promyelocytic cells (in words) [1] | proliferation of human keratinocytes / skin cells (in words) [2] | resistance to further hydroxylation (in words) [3] | Percentage of NBT positive cells, Exp. 1 ([1]; 0.001 μM) [%] | Percentage of NBT positive cells, Exp. 2 ([1]; 0.001 μM) [%] | Percentage of NBT positive cells, Average ([1]; 0.001 μM) [%] | Percentage of NBT positive cells, Exp. 1 ([1]; 0.01 μM) [%] | Percentage of NBT positive cells, Exp. 2 ([1]; 0.01 μM) [%] | Percentage of NBT positive cells, Average ([1]; 0.01 μM) [%] | Percentage of NBT positive cells, Exp. 1 ([1]; 0.1 μM) [%] | Percentage of NBT positive cells, Exp. 2 ([1]; 0.1 μM) [%] | Percentage of NBT positive cells, Average ([1]; 0.1 μM) [%] | Percentage of NBT positive cells, Exp. 1 ([1]; 1.0 μM) [%] | Percentage of NBT positive cells, Exp. 2 ([1]; 1.0 μM) [%] | Percentage of NBT positive cells, Average ([1]; 1.0 μM) [%] | inhibition at 0.03 µM [4, 5] [%] | inhibition at 0.03 µM [4, 6] [%] | inhibition at 0.1 µM [4, 5] [%] | inhibition at 0.1 µM [4, 6] [%] | other results
1 | – | C=C1/C(=C\C=C2/CCC[C@]3(C)C([C@H](C)CCC(O)C(C)(C)O)=CC[C@@H]23)C[C@@H](O)C[C@@H]1O (stereo partly drawn) [1,24,25(OH)3-16-ene-D3, 1,24,25-trihydroxy-16-ene-cholecalciferol] | stimulate differentiation of HL-60 cells | decrease proliferation of human keratinocytes | resisted further hydroxylation from other hydroxylase enzymes | – | – | – | – | – | – | – | – | – | – | – | – | – | – | – | – | –
2 | 0.08 | C=C1/C(=C\C=C2/CCC[C@]3(C)C([C@H](C)CCCC(C)(C)O)=CC[C@@H]23)C[C@@H](O)C[C@@H]1O [1,25(OH)2-16-ene-D3, 1,25-dihydroxy-16-ene-cholecalciferol] | – | – | – | 12.0 | 18.5 | 15.25 | 30.5 | 47.5 | 39.0 | 48.0 | 61.0 | 54.5 | 62.5 | 60.5 | 61.5 | 88.4 | 89.8 | 83.6 | 82.3 | inhibition at 0.3 µM [4, 5]: 89%; inhibition at 0.3 µM [4, 6]: 84.5%; inhibition at 1 µM [4, 5]: 57.1%; inhibition at 1 µM [4, 6]: 58.5%; antiproliferative activity, assay 1 (in words) [4]: some antiproliferative activity at lower doses, although this activity is not dose dependent; inhibition at 0.03 µM [2]: 75.6 ± 3.35%; inhibition at 0.1 µM [2]: 56.2 ± 5.7%; inhibition at 0.3 µM [2]: 36 ± 10.3%; inhibition at 1 µM [2]: 22.4 ± 8.55%; antiproliferative activity, assay 2 (in words) [2]: strong antiproliferative activity at lower doses; dose response (in words) [2]: good dose response curve; metabolism (in words) ([3]; 400 nmoles in 100 mL perfusate, 8 hours): metabolized mainly into two metabolites
3 | 0.035 | C=C1/C(=C\C=C2/CCC[C@]3(C)C([C@H](C)CCC(=O)C(C)(C)O)=CC[C@@H]23)C[C@@H](O)C[C@@H]1O [1,25(OH)2-16-ene-24-oxo-D3, 1,25-dihydroxy-16-ene-24-oxo-cholecalciferol] | induced differentiation of human promyelocytic cells; also recorded: stimulates differentiation of HL-60 cells | restrained the proliferation of skin cells | resisted further hydroxylation from other hydroxylase enzymes | 8.0 | 24.5 | 16.25 | 47.0 | 35.5 | 41.25 | 55.0 | 60.0 | 57.5 | 69.0 | 70.0 | 69.5 | 82.8 | 80.1 | 108 | 89.1 | differentiation of HL-60 / human promyelocytic cells (in words) ([1]; listed as I): stimulate differentiation of HL-60 cells; potency relative to the parent compound (in words) ([1]; versus 1,25(OH)2 -16-ene-D3): greater than that of the parent compound; inhibition at 0.3 µM [4, 5]: 73.3%; inhibition at 0.3 µM [4, 6]: 67.8%; inhibition at 1 µM [4, 5]: 73.1%; inhibition at 1 µM [4, 6]: 68.1%; antiproliferative activity, assay 1 (in words) [4]: some antiproliferative activity at lower doses, although this activity is not dose dependent; inhibition at 0.03 µM [2]: 63 ± 7.21%; inhibition at 0.1 µM [2]: 45.3 ± 9.48%; inhibition at 0.3 µM [2]: 31.1 ± 11.8%; inhibition at 1 µM [2]: 17.4 ± 8.13%; antiproliferative activity, assay 2 (in words) [2]: strong antiproliferative activity at lower doses; proliferation of human keratinocytes / skin cells (in words) ([2]; listed as I): decrease proliferation of human keratinocytes; dose response (in words) [2]: good dose response curve
